Test results reported in patent US12077503B2, “Substituted cyclic amides and their use as herbicides” (FMC CORPORATION, priority 2015, dated 2024).

Tests used:
Experiment in all cases: Test C preemergence
Assay type in all cases: in vivo
[1] = test system: oilseed rape (Brassica napus); details: for Plant response rating, Oilseed Rape: scale 0 to 100, 0 no effect, 100 complete control
Procedure, shortened: (§1)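 After treatment with surfactant-containing formulations, either preemergence to seeds in loam-sand soil or postemergence to potted seedlings at 2–18 cm, plants were kept 13–15 d in a greenhouse. Observers then compared them with controls and assigned ratings, 0 signifying no effect and 100 complete control.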

soybean (Glycine max) = details: scale 0 to 100, 0 no effect, 100 complete control
Procedure, shortened: as §1

[2] = test system: ragweed (common ragweed, Ambrosia elatior); details: for Plant response rating, Ragweed: scale 0 to 100, 0 no effect, 100 complete control
Procedure, shortened: as §1

corn (Zea mays) = details: for Plant response rating, Corn: scale 0 to 100, 0 no effect, 100 complete control
Procedure, shortened: as §1

[3] = test system: johnsongrass (Sorghum halepense); details: for Plant response rating, Johnsongrass: scale 0 to 100, 0 no effect, 100 complete control
Procedure, shortened: as §1

[4] = test system: wheat (winter wheat, Triticum aestivum); details: for Plant response rating, Wheat: scale 0 to 100, 0 no effect, 100 complete control
Procedure, shortened: as §1

[5] = test system: morningglory (Ipomoea coccinea); details: for Plant response rating, Morningglory: scale 0 to 100, 0 no effect, 100 complete control
Procedure, shortened: as §1

[6] = test system: crabgrass, large (large crabgrass, Digitaria sanguinalis); details: for Plant response rating, Crabgrass, Large: scale 0 to 100, 0 no effect, 100 complete control
Procedure, shortened: as §1

[7] = test system: lambsquarters (Chenopodium album); details: for Plant response rating, Lambsquarters: scale 0 to 100, 0 no effect, 100 complete control
Procedure, shortened: as §1

[8] = test system: Galium (catchweed bedstraw, Galium aparine); details: for Plant response rating, Galium: scale 0 to 100, 0 no effect, 100 complete control
Procedure, shortened: as §1

[9] = test system: barnyardgrass (Echinochloa crus-galli); details: for Plant response rating, Barnyardgrass: scale 0 to 100, 0 no effect, 100 complete control
Procedure, shortened: as §1

[10] = test system: nutsedge, yellow (yellow nutsedge, Cyperus esculentus); details: for Plant response rating, Nutsedge, Yellow: scale 0 to 100, 0 no effect, 100 complete control
Procedure, shortened: as §1

[11] = test system: foxtail, giant (giant foxtail, Setaria faberii); details: for Plant response rating, Foxtail, Giant: scale 0 to 100, 0 no effect, 100 complete control
Procedure, shortened: as §1

[12] = test system: ryegrass, Italian (Italian ryegrass, Lolium multiflorum); details: for Plant response rating, Ryegrass, Italian: scale 0 to 100, 0 no effect, 100 complete control
Procedure, shortened: as §1

[13] = test system: waterhemp (common waterhemp, Amaranthus rudis); details: for Plant response rating, Waterhemp: scale 0 to 100, 0 no effect, 100 complete control
Procedure, shortened: as §1

[14] = test system: pigweed (Amaranthus retroflexus); details: for Plant response rating, Pigweed: scale 0 to 100, 0 no effect, 100 complete control
Procedure, shortened: as §1

[15] = test system: velvetleaf (Abutilon theophrasti); details: for Plant response rating, Velvetleaf: scale 0 to 100, 0 no effect, 100 complete control
Procedure, shortened: as §1

[16] = 31 g ai/ha, 0 is no effect, 100 is complete control

Cc1cccc(C2CN(C)C(=O)C2C(=O)Nc2cccc(F)c2F)c1 (stereo not shown) [Compound 667]
Plant response rating (scale of 0 to 100), Oilseed Rape [1, 16]: 35 | Plant response rating, Oilseed Rape ([1]; 62 g ai/ha): 85 | Plant response rating, Oilseed Rape ([1]; 125 g ai/ha): 85 | Plant response rating, Oilseed Rape ([1]; 250 g ai/ha): 90 | Plant response rating, Soybean (soybean (Glycine max); 62 g ai/ha): 10 | Plant response rating, Soybean (soybean (Glycine max); 125 g ai/ha): 0 | Plant response rating, Soybean (soybean (Glycine max); 250 g ai/ha): 0 | Plant response rating (scale of 0 to 100), Ragweed [2, 16]: 25 | Plant response rating, Ragweed ([2]; 62 g ai/ha): 100 | Plant response rating, Ragweed ([2]; 125 g ai/ha): 70 | Plant response rating, Ragweed ([2]; 250 g ai/ha): 80 | Plant response rating (scale of 0 to 100), Corn (corn (Zea mays); [16]): 55 | Plant response rating, Corn (corn (Zea mays); 62 g ai/ha): 70 | Plant response rating, Corn (corn (Zea mays); 125 g ai/ha): 80 | Plant response rating, Corn (corn (Zea mays); 250 g ai/ha): 85 | Plant response rating (scale of 0 to 100), Johnsongrass [3, 16]: 70 | Plant response rating, Johnsongrass ([3]; 62 g ai/ha): 80 | Plant response rating, Johnsongrass ([3]; 125 g ai/ha): 85 | Plant response rating, Johnsongrass ([3]; 250 g ai/ha): 90 | Plant response rating (scale of 0 to 100), Wheat [4, 16]: 0 | Plant response rating, Wheat ([4]; 62 g ai/ha): 10 | Plant response rating, Wheat ([4]; 125 g ai/ha): 55 | Plant response rating, Wheat ([4]; 250 g ai/ha): 50 | Plant response rating (scale of 0 to 100), Morningglory [5, 16]: 0 | Plant response rating, Morningglory ([5]; 62 g ai/ha): 0 | Plant response rating, Morningglory ([5]; 125 g ai/ha): 0 | Plant response rating, Morningglory ([5]; 250 g ai/ha): 10 | Plant response rating (scale of 0 to 100), Crabgrass, Large [6, 16]: 95 | Plant response rating, Crabgrass, Large ([6]; 62 g ai/ha): 95 | Plant response rating, Crabgrass, Large ([6]; 125 g ai/ha): 98 | Plant response rating, Crabgrass, Large ([6]; 250 g ai/ha): 98 | Plant response rating (scale of 0 to 100), Lambsquarters [7, 16]: 50 | Plant response rating, Lambsquarters ([7]; 62 g ai/ha): 70 | Plant response rating, Lambsquarters ([7]; 125 g ai/ha): 90 | Plant response rating, Lambsquarters ([7]; 250 g ai/ha): 100 | Plant response rating (scale of 0 to 100), Galium [8, 16]: 10 | Plant response rating, Galium ([8]; 62 g ai/ha): 100 | Plant response rating, Galium ([8]; 125 g ai/ha): 98 | Plant response rating, Galium ([8]; 250 g ai/ha): 90 | Plant response rating (scale of 0 to 100), Barnyardgrass [9, 16]: 95 | Plant response rating, Barnyardgrass ([9]; 62 g ai/ha): 95 | Plant response rating, Barnyardgrass ([9]; 125 g ai/ha): 98 | Plant response rating, Barnyardgrass ([9]; 250 g ai/ha): 100 | Plant response rating (scale of 0 to 100), Nutsedge, Yellow [10, 16]: 0 | Plant response rating, Nutsedge, Yellow ([10]; 62 g ai/ha): 0 | Plant response rating, Nutsedge, Yellow ([10]; 125 g ai/ha): 0 | Plant response rating, Nutsedge, Yellow ([10]; 250 g ai/ha): 25 | Plant response rating (scale of 0 to 100), Foxtail, Giant [11, 16]: 95 | Plant response rating, Foxtail, Giant ([11]; 62 g ai/ha): 98 | Plant response rating, Foxtail, Giant ([11]; 125 g ai/ha): 98 | Plant response rating, Foxtail, Giant ([11]; 250 g ai/ha): 100 | Plant response rating (scale of 0 to 100), Ryegrass, Italian [12, 16]: 60 | Plant response rating, Ryegrass, Italian ([12]; 62 g ai/ha): 70 | Plant response rating, Ryegrass, Italian ([12]; 125 g ai/ha): 95 | Plant response rating, Ryegrass, Italian ([12]; 250 g ai/ha): 98 | Plant response rating (scale of 0 to 100), Waterhemp [13, 16]: 0 | Plant response rating, Waterhemp ([13]; 62 g ai/ha): 10 | Plant response rating, Waterhemp ([13]; 125 g ai/ha): 60 | Plant response rating, Waterhemp ([13]; 250 g ai/ha): 75 | Plant response rating (scale of 0 to 100), Pigweed [14, 16]: 40 | Plant response rating, Pigweed ([14]; 62 g ai/ha): 50 | Plant response rating, Pigweed ([14]; 125 g ai/ha): 50 | Plant response rating, Pigweed ([14]; 250 g ai/ha): 70 | Plant response rating (scale of 0 to 100), Velvetleaf [15, 16]: 5 | Plant response rating, Velvetleaf ([15]; 62 g ai/ha): 30 | Plant response rating, Velvetleaf ([15]; 125 g ai/ha): 50 | Plant response rating, Velvetleaf ([15]; 250 g ai/ha): 40
